Results from BindingDB's records for patent US20250326769 (Nuvalent, 2025).
pKi: −log10 of the molar value.

Key:
[1] = target: ALK tyrosine kinase receptor [I1171N,D1203N] (UniProt Q9UM73, D1203N/I1171N); assay: Biochemical Kinase Assay
Experimental: (§1) First, 250 nL of compound dissolved in DMSO (100-fold of the desired concentration) was dispensed into a 384-well plate. A 12.5 μL substrate solution containing ATP (2 mM) and fluorogenic phosphorylation substrate AQT0101 ([…] for ALK and ROS, AssayQuant) or AQT0104 (26 μM for TRKB, AssayQuant) in buffer (50 mM HEPES pH 7.5, […], 0.5 mM EGTA, 10 mM MgCl2) was added and mixed thoroughly. Then, a 12.5 μL kinase solution containing ALK (1.5 nM, Carna, 08-518), ALK I1171N/D1203N (4 nM, SignalChem, custom-made), ROS1 (0.6 nM, Carma, 08-163), ROS1-G2032R (0.5 nM, SignalChem, R14-121BG), or TRKB-wt (1.5 nM, SignalChem, N17-11G) kinase domains in buffer ([…] pH 7.5, 0.01% Brij-[…], 0.4 mg/mL BSA, 0.5 mM EGTA, and 10 mM MgCl2) was added and mixed thoroughly. The plate was sealed and read by SpectraMax Paradigm at λ=485 nm every 2 minutes for 120 minutes at 30° C. Initial rates of reaction (v) were calculated from the change in fluorescence intensity over time during the initial, linear portion of the reaction.

[2] = target: BDNF/NT-3 growth factors receptor (Homo sapiens, UniProt Q16620); assay: Biochemical Kinase Assay
Experimental: as §1

Chain of ALK tyrosine kinase receptor [I1171N,D1203N] (Q9UM73 19-1620 I1171N/D1203N limits assumed): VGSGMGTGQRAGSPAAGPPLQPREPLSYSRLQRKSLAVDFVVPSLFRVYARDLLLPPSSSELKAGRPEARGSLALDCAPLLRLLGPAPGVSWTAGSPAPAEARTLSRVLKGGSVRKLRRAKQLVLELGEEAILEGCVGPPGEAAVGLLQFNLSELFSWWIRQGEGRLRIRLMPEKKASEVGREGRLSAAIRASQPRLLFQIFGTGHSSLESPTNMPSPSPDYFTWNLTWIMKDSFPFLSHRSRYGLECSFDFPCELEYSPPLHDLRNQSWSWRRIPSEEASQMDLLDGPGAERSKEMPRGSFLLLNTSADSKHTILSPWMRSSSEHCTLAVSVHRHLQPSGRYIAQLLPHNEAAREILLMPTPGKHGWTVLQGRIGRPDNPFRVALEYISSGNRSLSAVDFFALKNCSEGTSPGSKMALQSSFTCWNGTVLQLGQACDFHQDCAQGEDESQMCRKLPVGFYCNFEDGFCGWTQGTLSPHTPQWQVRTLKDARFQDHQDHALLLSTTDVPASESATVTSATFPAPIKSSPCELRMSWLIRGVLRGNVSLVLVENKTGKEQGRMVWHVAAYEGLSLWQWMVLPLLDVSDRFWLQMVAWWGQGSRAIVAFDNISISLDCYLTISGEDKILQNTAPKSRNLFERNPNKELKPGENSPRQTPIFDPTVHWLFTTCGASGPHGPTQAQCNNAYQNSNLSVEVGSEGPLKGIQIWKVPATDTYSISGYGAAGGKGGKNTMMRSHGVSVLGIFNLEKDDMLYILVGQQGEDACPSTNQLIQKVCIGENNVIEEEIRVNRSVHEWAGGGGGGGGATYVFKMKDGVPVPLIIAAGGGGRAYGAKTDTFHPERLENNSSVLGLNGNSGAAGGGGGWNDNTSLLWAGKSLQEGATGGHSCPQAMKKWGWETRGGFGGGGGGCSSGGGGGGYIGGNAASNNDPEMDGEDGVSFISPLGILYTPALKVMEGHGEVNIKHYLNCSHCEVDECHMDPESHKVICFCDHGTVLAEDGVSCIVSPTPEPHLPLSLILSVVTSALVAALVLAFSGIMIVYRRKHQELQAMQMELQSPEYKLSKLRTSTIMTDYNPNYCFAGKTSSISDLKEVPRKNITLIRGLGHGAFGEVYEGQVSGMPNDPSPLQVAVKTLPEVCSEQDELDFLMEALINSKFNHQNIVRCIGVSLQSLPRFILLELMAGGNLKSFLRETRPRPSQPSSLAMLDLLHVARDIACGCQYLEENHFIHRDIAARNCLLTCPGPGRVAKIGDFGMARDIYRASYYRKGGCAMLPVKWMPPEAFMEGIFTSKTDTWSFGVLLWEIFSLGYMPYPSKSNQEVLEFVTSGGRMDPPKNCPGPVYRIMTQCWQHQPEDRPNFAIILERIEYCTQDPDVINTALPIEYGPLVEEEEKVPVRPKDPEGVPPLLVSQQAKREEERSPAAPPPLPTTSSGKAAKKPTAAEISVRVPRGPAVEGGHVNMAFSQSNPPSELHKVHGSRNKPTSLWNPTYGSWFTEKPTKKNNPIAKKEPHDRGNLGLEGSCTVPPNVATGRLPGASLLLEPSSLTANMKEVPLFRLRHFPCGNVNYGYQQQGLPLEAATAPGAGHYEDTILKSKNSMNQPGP
Chain of BDNF/NT-3 growth factors receptor (Q16620 whole entry): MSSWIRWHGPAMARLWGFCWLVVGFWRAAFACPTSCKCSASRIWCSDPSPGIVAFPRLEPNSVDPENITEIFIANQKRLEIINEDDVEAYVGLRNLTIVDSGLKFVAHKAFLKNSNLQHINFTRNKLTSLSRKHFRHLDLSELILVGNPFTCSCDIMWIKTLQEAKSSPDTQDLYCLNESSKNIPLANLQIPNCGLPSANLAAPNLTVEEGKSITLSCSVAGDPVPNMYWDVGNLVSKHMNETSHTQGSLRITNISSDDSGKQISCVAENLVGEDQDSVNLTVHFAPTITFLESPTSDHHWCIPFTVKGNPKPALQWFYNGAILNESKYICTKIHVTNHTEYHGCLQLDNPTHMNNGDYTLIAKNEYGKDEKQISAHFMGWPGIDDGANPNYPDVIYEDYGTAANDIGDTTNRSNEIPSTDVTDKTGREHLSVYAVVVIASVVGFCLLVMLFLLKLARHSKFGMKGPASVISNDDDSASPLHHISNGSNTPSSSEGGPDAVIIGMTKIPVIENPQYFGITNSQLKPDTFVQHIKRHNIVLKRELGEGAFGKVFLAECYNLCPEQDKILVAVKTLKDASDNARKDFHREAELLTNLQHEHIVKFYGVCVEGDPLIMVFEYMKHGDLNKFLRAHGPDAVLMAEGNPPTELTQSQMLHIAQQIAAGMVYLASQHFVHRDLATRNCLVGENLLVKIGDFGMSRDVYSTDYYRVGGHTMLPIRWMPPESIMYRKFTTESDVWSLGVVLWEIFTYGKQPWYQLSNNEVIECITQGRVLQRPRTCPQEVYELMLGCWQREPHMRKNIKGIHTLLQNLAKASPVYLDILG

SMILES | pKi [1] | pKi [2]
CCn1ncc2c1-c1cnc(N)c(c1)O[C@H](C)c1cc(F)ccc1-c1ncccc1O2 [US20250326769, Example 14] | > 7.30 | > 7.30
CCN(C)C(=O)c1nn(CC2CC2)c2c1Cc1cn(C)nc1-c1ccc(F)cc1[C@@H](C)Oc1cc-2cnc1N [US20250326769, Example 38] | > 7.30 | 
Cc1cc2n(n1)-c1c(F)cc(F)cc1[C@@H](C)Oc1cc(cnc1N)-c1c(c(C(=O)N(C)C)nn1CC1CC1)C2 [US20250326769, Example 44] | > 7.30 | 

Now from value to compound:

pKi [1] | pKi [2] | SMILES
> 7.30 |  | C[C@H]1Oc2cc(cnc2N)-c2c(c(C(N)=O)nn2CC2CC2)Cc2cccnc2-c2ccc(F)cc21 [US20250326769, Example 6]
> 7.30 | < 6.30 | CC(C)N(C)C(=O)c1nn(CC2CC2)c2c1Cc1cn(C)nc1-c1ccc(F)cc1[C@@H](C)Oc1cc-2cnc1N [US20250326769, Example 37]
